Source: ChEMBL document CHEMBL4715874, “In Vivo Screening of Xanthones from Garcinia oligantha Identified Oliganthin H as a Novel Natural Inhibitor of Convulsions” (J Nat Prod, 2020)
Calls of active or inactive are those of the source. No cut-off for these calls is given here.

Experiments:
Danio rerio [1] = species on record: Danio rerio; test: Anticonvulsant activity in AB zebra fish larvae assessed as reduction in PTZ-induced convulsant behavior by measuring lowest observed effect concentration pretreated for 6 hrs followed by PTZ-stimulation and measured every 5 mins for 1 hr; format: functional; details: time 7 hrs
[2] = Toxicity in AB zebra fish larvae assessed as mortality at >= 25 uM after 6 hrs; set-up: species or system Danio rerio; details: zebrafish
[3] = Neurotoxicity in AB zebra fish larvae assessed as increase in total swimming distance at > 12.5 uM after 6 hrs; format: toxicity, Danio rerio; details: zebrafish
[4] = Ratio of MTC for toxicity in AB zebra fish larvae to lowest observed effect concentration for Anticonvulsant activity in AB zebra fish larvae assessed as reduction in PTZ-induced convulsant behavior; set-up: species or system Danio rerio
[5] = Neurotoxicity in AB zebra fish larvae at 25 uM after 6 hrs; format: toxicity, Danio rerio; details: zebrafish
[6] = Toxicity in AB zebra fish larvae assessed as maximum tolerated concentration after 6 hrs; set-up: species or system Danio rerio; details: zebrafish, read-out: MTC
[7] = Neurotoxicity in AB zebra fish larvae assessed as decrease in total swimming distance at <= MTC after 6 hrs; format: toxicity, Danio rerio; details: zebrafish
Danio rerio [8] = species on record: Danio rerio; test: Anticonvulsant activity in AB zebra fish larvae assessed as reduction in PTZ-induced convulsant behavior by measuring swimming distance at 3.1 to 12.5 uM pretreated for 6 hrs followed by PTZ-stimulation and measured every 5 mins for 1 hr; format: functional, organism-based; details: dose 3.1-12.5 µM, time 7.0 hrs

In the case of CC(C)=CCC1(CC=C(C)C)C(=O)C(O)=C(O)c2oc3c4c(cc(O)c3c(=O)c21)OC(C)(C)C=C4, the Activity (Danio rerio [1]) is reported as over 12.5 µM, the Activity [2] is reported as “Toxic” and the Activity [3] is reported as “Toxic”. The Ratio [4] was under 1, the Activity [5] was “Toxic” and the MNTC at 6 h [6] was 12.5 µM. For the same compound, the Activity [7] was “Non-Toxic” and the Activity (Danio rerio [8]) was “inactive”.
